# Assay results published in article PMC4550478, “Metronidazole-triazole conjugates: Activity against Clostridium difficile and parasites” (European Journal of Medicinal Chemistry, 2015).
# Read-outs that look alike come from different tables or passages of the source.
# Legend:
# [1] = test system: G. lamblia WB trophozoites; assay: ATP-bioluminescence growth and survival assay, G. lamblia WB; format: cell-based, Giardia lamblia; conditions: Giardia duodenalis; MtzS, 48 h, anaerobic, n = 3
# Experimental: (§1) Compounds were tested for antiparasitic activity against E. histolytica (HM1:1MSS strain) and G. lamblia (WB, BRIS/87/HEPU/713 (713), BRIS/83/HEPU/106 (106) and the metronidazole resistant syngeneic line 713-M3 [[15,16]]) using an ATP-bioluminescence based screen for cell growth and survival [[17,18]]. Assay plates were inoculated with trophozoites (5 × 10^3 parasites/well) and incubated in the GasPak™ EZ Anaerobe Gas Generating Pouch Systems (VWR, West Chester, PA) to maintain anaerobic conditions throughout the incubation period. The assays were performed in triplicate using the CellTiter-Glo Luminescent Cell Viability Assay. Metronidazole was used as a positive control.
# (§2) Trophozoites of E. histolytica strain HM1:IMSS and G. lamblia strains WB, BRIS/87/HEPU/713 (713),^10 BRIS/83/HEPU/106 (106)^11 and the metronidazole resistant syngenic line 713-M3^10,11 were axenically maintained in TYI-S-33 medium supplemented with penicillin (100 U/ml), streptomycin (100 µg/ml).^12 E. histolytica and G. lamblia trophozoites were counted using a particle counter (Beckman Coulter, Fullerton, CA). All experiments were performed using trophozoites harvested during the logarithmic phase of growth.
# (§3) A three-fold serial dilution was then performed yielding a concentration range 0.25-625 µM. From this dilution plate, 4 µL were transferred into the 96-well screen plates followed by addition of 96 µL of trophozoites (5,000 parasites) to yield a final 8-point concentration range spanning 0.01- 25 µM. Assay plates were incubated for 48 h at 37 °C in the GasPak^TM EZ Anaerobe Gas Generating Pouch Systems (VWR, West Chester, PA) to maintain anaerobic condition throughout the incubation period. The assays were performed in triplicate using the CellTiter-Glo Luminescent Cell Viability Assay.^13
# G. lamblia 713-M3 (713M) = assay: ATP-bioluminescence growth and survival assay, metronidazole resistant G. lamblia 713-M3; format: cell-based; conditions: Giardia duodenalis, read-out: EC50 G. lamblia 713M
# Experimental: as §1, §2, §3
# [2] = test system: E. histolytica HM1:IMSS trophozoites; assay: ATP-bioluminescence growth and survival assay, E. histolytica; format: cell-based, Entamoeba histolytica; conditions: Entamoeba histolytica; MtzS, 48 h, anaerobic, n = 3
# Experimental: as §1, §2, §3
# [3] = test system: G. lamblia BRIS/87/HEPU/713 (713); assay: ATP-bioluminescence growth and survival assay, G. lamblia 713; format: cell-based; conditions: Giardia duodenalis, read-out: EC50 G. lamblia 713
# Experimental: as §1, §2, §3
# [4] = test system: G. lamblia BRIS/83/HEPU/106 (106); assay: ATP-bioluminescence growth and survival assay, G. lamblia 106; format: cell-based; conditions: Giardia duodenalis, read-out: EC50 G. lamblia 106
# Experimental: as §1, §2, §3
# [5] = test system: C. difficile NAP1/027 CD26A54_R; assay: MIC broth microdilution, metronidazole resistant C. difficile CD26A54_R; format: cell-based, Clostridium difficile; conditions: for MIC: Clostridioides difficile
# [6] = MIC against ESKAPE pathogens, aerobic; format: cell-based; conditions: aerobic conditions, single concentration screen, n = 3; read-out: MIC ESKAPE bacteria
# Experimental: All compounds were tested for activity against a set of anaerobic C. difficile bacteria (630 ATCC BAA-1382, NAP1/027 M7404, NAP1/027 ATCC BAA-1803, VPI10463 ATCC 43255, CD26A54_S and CD26A54_R) and representative ESKAPE pathogens S. aureus (MRSA ATCC 43300), E. coli (ATCC 25922), K. pneumoniae (ATCC 700603), A. baumannii (ATCC 19606) and P. aeruginosa (ATCC 27853) using a standard broth microdilution assay. Selected compounds were tested for activity against H. pylori strains (26695, and clinical isolates MtzS 13/25, MtzR 98/285 and MtzR 13/61) using agar plate dilution, and for antimicrobial activity against twelve Gram-positive bacterial strains: Enterococcus faecalis (VanA clinical isolate), Enterococcus faecium (MDR VanA ATCC 51559), Streptococcus pneumoniae (MDR ATCC 700677), S. aureus (MRSA ATCC 43300, MRSA clinical isolate, MRSA/DRSA clinical isolate, GISA NARSA NRS 1, GISA NARSA NRS 17, VRSA NARSA VRS1, VRSA NARSA VRS4 and VRSA NARSA VRS10) using broth microdilution. C. difficile strains were grown at 37 °C in a COY anaerobic chamber (5% H2, 10% CO2, 85% N2). H. pylori strains were grown at 37 °C under a microaerobic atmosphere (5% O2, 10% CO2). All facultative anaerobic bacteria were grown at 37 °C with normal atmospheric oxygen levels. […] Positive growth control of bacteria and DMSO as well as a negative control of only media were included for every plate. Full assay details are provided in the supplementary information.
# MICs were determined by a two-fold serial broth micro dilution according to the recommendation of CLSI standards with an inoculum of 5 × 10^5 CFU/mL^4 The compounds along with standard antibiotics were serially diluted twofold across the wells of 96-well non-binding surface plates (NBS, Corning). […] Gram-positive and Gram-negative bacteria were cultured in Mueller Hinton broth (MHB) (Bacto laboratories, Cat. no. 211443) at 37 °C overnight. A sample of each culture was then diluted 40-fold in fresh MHB broth and incubated at 37 °C for 2-3 h. The resultant mid-log phase cultures were diluted to the final concentration of 5 × 10^5 CFU/mL, then 50 μL was added to each well of the compound containing 96-well plates. All the plates were covered and incubated at 37 °C for 24 h.
# [7] = test system: C. difficile NAP1/027 CD26A54_S; assay: MIC broth microdilution, C. difficile CD26A54_S; format: cell-based, Clostridium difficile; conditions: Clostridioides difficile
# [8] = 24 hr incubation, read-out: MIC C. difficile NAP1/027 CD26A54_R 24 hr
# [9] = CD26A54_R, MtzR, 48 h growth, BHIS broth, n = 8, read-out: MIC C. difficile NAP1/027 CD26A54_R 48 h
# [10] = 24 hr incubation, read-out: MIC C. difficile NAP1/027 CD26A54_S 24 hr
# [11] = CD26A54_S, MtzS (intermediary), 48 h growth, read-out: MIC C. difficile NAP1/027 CD26A54_S 48 h
# [12] = MtzS, purified compounds, this study
smiles,measurement,setting,value
"Cc1ncc([N+](=O)[O-])n1CCn1cc(-c2ccc(Cl)cc2)nn1 [Compound 4c, 1-(2-(2-methyl-5-nitro-1H-imidazol-1-yl)ethyl)-4-(4-chlorophenyl)-1H-1,2,3-triazole]",EC50,[1],0.2 µM
same,EC50,G. lamblia 713-M3 (713M),3.5 µM
same,EC50,[2],3.6 µM
same,EC50,[3],1.2 µM
same,EC50,[4],0.89 µM
same,MIC,[5]; [8],8 µg/mL
same,MIC,[5]; [9],16 µg/mL
same,MIC,[6],> 32 µg/mL
same,MIC,[7]; [10],1 to 2 µg/mL
same,MIC,[7]; [11],2 µg/mL
"Cc1ncc([N+](=O)[O-])n1CCn1cc(-c2ccsc2)nn1 [Compound 4n, 1-(2-(2-methyl-5-nitro-1H-imidazol-1-yl)ethyl)-4-(thiophen-3-yl)-1H-1,2,3-triazole]",EC50,[1],0.37 µM
same,EC50,G. lamblia 713-M3 (713M),0.9 µM
same,EC50,[2],3.8 µM
same,EC50,[3],0.18 µM
same,EC50,[4],0.34 µM
same,MIC,[5]; [8],2 µg/mL
same,MIC,[5]; [9],2 µg/mL
same,MIC,[6],> 32 µg/mL
same,MIC,[7]; [10],1 µg/mL
same,MIC,[7]; [11],1 µg/mL
"Cc1ncc([N+](=O)[O-])n1CCn1cc(-c2ccc(Cl)c(Cl)c2)nn1 [Compound 4d, 1-(2-(2-methyl-5-nitro-1H-imidazol-1-yl)ethyl)-4-(3,4-dichlorophenyl)-1H-1,2,3-triazole]",EC50,[1],0.39 µM
same,EC50,G. lamblia 713-M3 (713M),1.2 µM
same,EC50,[2],5.2 µM
same,EC50,[3],2.5 µM
same,EC50,[4],1.1 µM
same,MIC,[5]; [8],8 to 16 µg/mL
same,MIC,[5]; [9],8 to 16 µg/mL
same,MIC,[6],> 32 µg/mL
same,MIC,[7]; [10],1 µg/mL
same,MIC,[7]; [11],1 µg/mL
"Cc1ncc([N+](=O)[O-])n1CCO [Compound 1, metronidazole]",EC50,[1],7.9 µM
same,EC50,G. lamblia 713-M3 (713M),17 µM
same,EC50,[2],5 µM
same,EC50,[3]; [12],2.3 µM
same,EC50,[4]; [12],2.8 µM
same,MIC C. difficile NAP1/027 CD26A54_R 24 hr,[5]; 24 hr incubation,2 µg/mL
same,MIC,[5]; [8],2 µg/mL
same,MIC,[5]; [9],4 µg/mL
same,MIC,[6],> 32 µg/mL
same,MIC,[7]; [10],1 µg/mL
same,MIC,[7]; [11],1 µg/mL
"COC(=O)c1cn(CCn2c([N+](=O)[O-])cnc2C)nn1 [Compound 4f, 1-(2-(2-methyl-5-nitro-1H-imidazol-1-yl)ethyl)-4-(methoxycarbonyl)-1H-1,2,3-triazole]",EC50,[1],3 µM
same,EC50,G. lamblia 713-M3 (713M),3.1 µM
same,EC50,[2],> 25 µM
same,EC50,[3],1.8 µM
same,EC50,[4],2 µM
same,MIC,[5]; [8],4 µg/mL
same,MIC,[5]; [9],4 µg/mL
same,MIC,[6],> 32 µg/mL
same,MIC,[7]; [10],1 µg/mL
same,MIC,[7]; [11],2 µg/mL
"Cc1ncc([N+](=O)[O-])n1CCn1cc(-c2ccccc2)nn1 [Compound 4a, 1-(2-(2-methyl-5-nitro-1H-imidazol-1-yl)ethyl)-4-phenyl-1H-1,2,3-triazole]",EC50,[1],0.25 µM
same,EC50,G. lamblia 713-M3 (713M),2.3 µM
same,EC50,[2],4.2 µM
same,EC50,[3],0.16 µM
same,EC50,[4],0.28 µM
same,MIC,[5]; [8],2 µg/mL
same,MIC,[5]; [9],2 µg/mL
same,MIC,[6],> 32 µg/mL
same,MIC,[7]; [10],1 µg/mL
same,MIC,[7]; [11],1 µg/mL
"Cc1ncc([N+](=O)[O-])n1CCn1cc(CN(C)Cc2ccccc2)nn1 [Compound 4m, 1-(2-(2-methyl-5-nitro-1H-imidazol-1-yl)ethyl)-4-(N-benzyl, N-methylaminomethyl)-1H-1,2,3-triazole]",EC50,[1],1.6 µM
same,EC50,G. lamblia 713-M3 (713M),2.2 µM
same,EC50,[2],4.6 µM
same,EC50,[3],0.71 µM
same,EC50,[4],1.1 µM
same,MIC,[5]; [8],8 µg/mL
same,MIC,[5]; [9],8 µg/mL
same,MIC,[6],> 32 µg/mL
same,MIC,[7]; [10],2 µg/mL
same,MIC,[7]; [11],2 µg/mL
"Cc1ncc([N+](=O)[O-])n1CCn1cc(C(O)c2ccccc2)nn1 (stereo not drawn) [Compound 4l, 1-(2-(2-methyl-5-nitro-1H-imidazol-1-yl)ethyl)-4-(1-phenyl-1-hydroxylmethyl)-1H-1,2,3-triazole]",EC50,[1],4.4 µM
same,EC50,G. lamblia 713-M3 (713M),3 µM
same,EC50,[2],> 25 µM
same,EC50,[3],2.4 µM
same,EC50,[4],2.2 µM
same,MIC,[5]; [8],4 µg/mL
same,MIC,[5]; [9],4 µg/mL
same,MIC,[6],> 32 µg/mL
same,MIC,[7]; [10],2 µg/mL
same,MIC,[7]; [11],2 µg/mL
